Experimental findings from ChEMBL document CHEMBL4814028, “Design, synthesis, and antibacterial evaluation of PFK-158 derivatives as potent agents against drug-resistant bacteria” (Bioorg Med Chem Lett, 2021) are described below.

Converted amounts (≈) assume the structure as drawn.

Holding throughout (assay type): functional
Experiment [1] deals with Escherichia coli. As to the kind of experiment: Antibacterial activity against ESBLs negative Escherichia coli ATCC 25922 by agar method.
Experiment [2] concerns Enterococcus faecalis. As to the kind of experiment: Antibacterial activity against Vancomycin-sensitive Enterococcus faecalis ATCC 29212 by agar method.
In experiment [3] the test system is Staphylococcus aureus. The experiment is described as follows: Antibacterial activity against methicillin-resistant Staphylococcus aureus ATCC 33591 by agar method.
For experiment [4], the system named is Acinetobacter baumannii. The experiment is described as follows: Antibacterial activity against carbapenem-resistant Acinetobacter baumannii 16-33 by agar method.
The subject of experiment [5] is Escherichia coli. The experiment is described as follows: Antibacterial activity against ESBLs positive Escherichia coli ATCC 35218 by agar method.
Experiment [6] deals with Enterococcus faecalis. As to the kind of experiment: Antibacterial activity against vancomycin-resistant Enterococcus faecalis ATCC 51299 by agar method.
Experiment [7] deals with Escherichia coli. The experiment is described as follows: Antibacterial activity against NDM-1 positive Escherichia coli ATCC 2469 by agar method.
Experiment [8] has as its system Staphylococcus epidermidis. The experiment is described as follows: Antibacterial activity against methicillin-sensitive Staphylococcus epidermidis ATCC 12228 by agar method.
The subject of experiment [9] is Staphylococcus aureus. The experiment is described as follows: Antibacterial activity against methicillin-sensitive Staphylococcus aureus ATCC 29213 by agar method.
Experiment [10] has as its system Staphylococcus epidermidis. The experiment is described as follows: Antibacterial activity against methicillin-resistant Staphylococcus epidermidis 16-5 by agar method.

Regarding `O=C(/C=C/c1ccncc1)c1ccc2ccc(C(F)(F)F)cc2n1`, the MIC in experiment [1] was greater than 32 µg/mL; in experiment [2], greater than 32 µg/mL; in experiment [3], 16 µg/mL (≈ 48.7 µM); in experiment [4], greater than 32 µg/mL; in experiment [5], greater than 32 µg/mL; in [6], greater than 32 µg/mL. The MIC in experiment [7], in experiment [8], in [9] and in experiment [10] was greater than 32 µg/mL in each case.
As to `C[n+]1cccc(C(=O)/C=C/c2ccc3ccccc3c2)c1.[I-]`, the MIC in experiment [1], in experiment [2], in experiment [3], in experiment [4], in [5] and in [6] was greater than 128 µg/mL in each case. In addition, the MIC in experiment [7], in experiment [8], in experiment [9] and in [10] was greater than 128 µg/mL in each case.
For the molecule `O=C(/C=C/c1cnc2ccccc2c1)c1ccncc1`, the MIC was greater than 128 µg/mL in experiment [1]; 32 µg/mL (≈ 123 µM) in [2]; 8 µg/mL (≈ 30.7 µM) in experiment [3]; 128 µg/mL (≈ 492 µM) in experiment [4]; greater than 128 µg/mL in experiment [5]; 16 µg/mL (≈ 61.5 µM) in [6]. In addition, the MIC was greater than 128 µg/mL in [7], 8 µg/mL (≈ 30.7 µM) in [8], 8 µg/mL (≈ 30.7 µM) in experiment [9] and 8 µg/mL (≈ 30.7 µM) in experiment [10].
Take `O=C(/C=C/c1ccc2ccc(C(F)(F)F)cc2n1)c1ccccc1`: the MIC in experiment [1], in experiment [2], in experiment [3], in [4], in experiment [5] and in experiment [6] was greater than 128 µg/mL each time. The MIC in experiment [7], in [8], in experiment [9] and in experiment [10] was greater than 128 µg/mL each time.
Take `O=C(/C=C/c1ccc2ccccc2c1)c1ccccn1`: the MIC in experiment [1], in [2], in experiment [3], in [4], in experiment [5] and in [6] was greater than 128 µg/mL each time. The MIC in experiment [7], in [8], in experiment [9] and in experiment [10] was greater than 128 µg/mL throughout.
On to `O=C(/C=C/c1ccncc1)c1ccc2ccccc2c1`, for which the MIC was greater than 128 µg/mL in [1]; greater than 128 µg/mL in experiment [2]; 4 µg/mL (≈ 15.4 µM) in experiment [3]; greater than 128 µg/mL in experiment [4]; greater than 128 µg/mL in experiment [5]; greater than 128 µg/mL in experiment [6]. Also, the MIC is greater than 128 µg/mL in experiment [7], 4 µg/mL (≈ 15.4 µM) in [8], 8 µg/mL (≈ 30.9 µM) in [9] and 8 µg/mL (≈ 30.9 µM) in experiment [10].
Consider `C[n+]1cccc(/C=C/C(=O)c2ccc3ccccc3c2)c1.[I-]`, for which the MIC in experiment [1] was greater than 128 µg/mL; in [2], greater than 128 µg/mL; in experiment [3] it was 128 µg/mL; in [4], greater than 128 µg/mL; in experiment [5], greater than 128 µg/mL; in experiment [6] it was greater than 128 µg/mL. Besides, the MIC was greater than 128 µg/mL in experiment [7], 64 µg/mL in experiment [8], 128 µg/mL in [9] and greater than 128 µg/mL in experiment [10].
As to `C[n+]1cccc(C(=O)/C=C/c2ccc3ccc(C(F)(F)F)cc3n2)c1.[I-]`, the MIC is greater than 128 µg/mL in [1]; 128 µg/mL in experiment [2]; 32 µg/mL in [3]; greater than 128 µg/mL in experiment [4]; greater than 128 µg/mL in experiment [5]; 128 µg/mL in experiment [6]. Besides, the MIC in experiment [7] is greater than 128 µg/mL; in [8] it was 64 µg/mL; in [9], 64 µg/mL; in experiment [10], 64 µg/mL.
`C[C@H]1COc2c(N3CCN(C)CC3)c(F)cc3c(=O)c(C(=O)O)cn1c23.C[C@H]1COc2c(N3CCN(C)CC3)c(F)cc3c(=O)c(C(=O)O)cn1c23.O` [LEVOFLOXACIN]: the MIC in experiment [2] stood at 1 µg/mL; in experiment [3] it was 0.12 µg/mL; in [4], 2 µg/mL; in experiment [6], 0.5 µg/mL; in experiment [7], 16 µg/mL; in [8], 0.12 µg/mL. For the same molecule, the MIC in experiment [9] was 0.12 µg/mL; in experiment [10], 8 µg/mL.

In general, MIC refers to the lowest concentration found to suppress growth. Read a high MIC as a need for much substance.
